Test results reported in US20260200978A1, “PEPTIDE INHIBITORS OF BETA-LACTAMASE” (priority 2022, published 2026).
Square brackets hold non-standard residues; d marks the D form. Peptide text beside a SMILES is read from it.

Tests used:
[1] = 25% human serum, 0 hours and 24 hours (FIG. 1)
[2] = target: PBP2a (Staphylococcus aureus, UniProt P07944); experiment: PBP2a colorimetry assay; format: biochemical
Text: Methicillin-resistant Staphylococcus aureus (MRSA) contains the mecA gene in a mobile genetic element found in all MRSA strains, which encodes penicillin-binding protein 2a (PBP2a). PBPs are membrane-bound enzymes that catalyze the transpeptidation reaction that is necessary for cross-linkage of peptidoglycan chains for cell wall formation and targeted by β-lactam. Because of the low affinity of PBP2a for all β-lactam antibiotics, it can substitute for other PBPs under high concentrations of f-lactam antibiotics. As a result. MRSA strains are highly resistant to β-lactam antibiotics.

[3] = tested on: SAP231; experiment: Enhancement of cefazolin killing of MRSA; format: cell-based, Staphylococcus aureus; conditions: at the test concentrations, 0 μg/ml peptide
Procedure: FIGS. 4A and 4B are graphs showing RI-D-BP100-T61-25 combined with cefazolin and tested against both SAP231 (FIG. 4A) and NRS384 strain (FIG. 4B).
Additionally, the peptide's potency at enhancing cefazolin killing of MRSA was also tested. Cefazolin is a cephalosporin, which are improved β-lactams developed to overcome some of the early penicillin resistance. Cefazolin is a first line therapy for the treatment of Methicillin-susceptible Staphylococcus aureus (MSSA) infections. […] RI-D-BP100-T61-25 was also combined with cefazolin and tested against both SAP231 (FIG. 4A) and NRS384 strain (FIG. 4B).

[4] = target: TEM-1 β-lactamase (Escherichia coli, UniProt P62593); experiment: β-lactamase colorimetry assay (TEM-1 inhibition); format: biochemical, E. coli; conditions: for TEM-1 inhibition compared with T61-25: β-lactamase colorimetry assay
TEM-1 β-lactamase, sequence (P62593 24-286 limits assumed): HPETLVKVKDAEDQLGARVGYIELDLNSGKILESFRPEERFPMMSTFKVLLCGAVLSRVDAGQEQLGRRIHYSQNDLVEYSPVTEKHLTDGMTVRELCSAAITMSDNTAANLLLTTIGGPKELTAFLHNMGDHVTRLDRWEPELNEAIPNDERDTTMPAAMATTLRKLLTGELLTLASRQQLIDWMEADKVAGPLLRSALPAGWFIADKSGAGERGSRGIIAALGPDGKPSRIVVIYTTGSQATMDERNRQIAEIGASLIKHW
Text: The bacteria can express a β-lactamase and the antibacterial peptide can inhibit the ability of the β-lactamase to cleave a β-lactam ring. This can be measured using a beta lactamase inhibition assay like a commercially available beta lactamase inhibitor screening kit. These kits test the ability of a beta lactamase to hydrolyze a chromogenic substrate, which results in the generation of a colored product. The amount of color produced is directly proportional to the amount of beta-lactamase activity. In the presence of beta lactamase inhibitors, such as clavulanic acid or the antibacterial peptides described herein, the rate of substrate hydrolysis will decrease resulting in a decrease in the production of colored analyte. The non-peptide β-lactamase inhibitor can include clavulanate, clavulanic acid, sulbactam, taobactam, avibactam, relebacam, RG6080, or RPX7009.

PBP2a, sequence (P07944 whole entry): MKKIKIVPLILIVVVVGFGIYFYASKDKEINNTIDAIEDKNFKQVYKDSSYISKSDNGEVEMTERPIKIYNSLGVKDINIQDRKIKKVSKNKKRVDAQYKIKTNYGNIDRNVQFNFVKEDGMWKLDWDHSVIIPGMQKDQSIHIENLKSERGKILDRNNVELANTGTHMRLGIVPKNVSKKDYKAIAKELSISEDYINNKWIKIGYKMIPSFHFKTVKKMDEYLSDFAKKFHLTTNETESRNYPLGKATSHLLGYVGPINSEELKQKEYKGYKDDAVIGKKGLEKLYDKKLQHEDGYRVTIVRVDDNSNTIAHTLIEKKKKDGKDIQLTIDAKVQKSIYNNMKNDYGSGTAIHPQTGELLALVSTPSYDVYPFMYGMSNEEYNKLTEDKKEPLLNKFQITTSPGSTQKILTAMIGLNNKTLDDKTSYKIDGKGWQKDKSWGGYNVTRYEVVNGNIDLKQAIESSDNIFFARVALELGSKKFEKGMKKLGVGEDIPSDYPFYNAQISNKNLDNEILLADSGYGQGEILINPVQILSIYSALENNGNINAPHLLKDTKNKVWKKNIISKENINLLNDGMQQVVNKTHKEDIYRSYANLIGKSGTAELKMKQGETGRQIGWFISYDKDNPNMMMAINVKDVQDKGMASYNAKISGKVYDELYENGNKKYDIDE

SMILES: CC[C@@H](C)[C@@H](NC(=O)[C@@H](CC(C)C)NC(=O)[C@@H](CCCCN)NC(=O)[C@@H](Cc1ccc(O)cc1)NC(=O)[C@@H](CC(C)C)NC(=O)[C@@H](CCCCN)NC(=O)[C@H](NC(=O)[C@@H](Cc1ccc(O)cc1)NC(=O)[C@@H](CC(C)C)NC(=O)[C@@H](C)NC(=O)[C@@H](CCC(N)=O)NC(=O)[C@@H](C)NC(=O)[C@@H](C)NC(=O)[C@@H](C)NC(=O)[C@H](NC(=O)CN)[C@H](C)O)[C@H](C)O)C(=O)N[C@H](CCCCN)C(=O)N[C@H](CCCCN)C(=O)N[C@H](Cc1ccccc1)C(=O)N[C@H](CC(C)C)C(=O)N[C@H](CCCCN)C(=O)N[C@H](CCCCN)C(=O)O [RI-D-BP100-T61-25, dGdTdAdAdAdQdAdLdYdTdKdLdYdKdLdIdKdKdFdLdKdK] (H-G[dT][dA][dA][dA][dQ][dA][dL][dY][dT][dK][dL][dY][dK][dL][dI][dK][dK][dF][dL][dK][dK]-OH; N-terminus and C-terminus assumed)
- serum stability [1]: better than the L-peptide BP100-T61-25

SMILES: CC(C)C[C@H](NC(=O)[C@H](Cc1ccc(O)cc1)NC(=O)[C@@H](NC(=O)[C@@H](N)CCCCN)[C@@H](C)O)C(=O)N[C@@H](C)C(=O)N[C@@H](CCC(N)=O)C(=O)N[C@@H](C)C(=O)N[C@@H](C)C(=O)N[C@@H](C)C(=O)N[C@H](C(=O)NCC(=O)O)[C@@H](C)O [Inhibitor T61-25]
- inhibition of PBP2a activity [2]: capable of inhibiting PBP2a activity at μM range

SMILES: Cc1nnc(SCC2=C(C(=O)O)N3C(=O)[C@@H](NC(=O)Cn4cnnn4)[C@H]3SC2)s1 [cefazolin, Cefazolin]
- inhibition of SAP231 growth by cefazolin alone [3]: partially inhibited

SMILES: CC(C)C[C@@H](NC(=O)[C@@H](C)NC(=O)[C@@H](CCC(N)=O)NC(=O)[C@@H](C)NC(=O)[C@@H](C)NC(=O)[C@@H](C)NC(=O)[C@H](NC(=O)CN)[C@H](C)O)C(=O)N[C@H](Cc1ccc(O)cc1)C(=O)N[C@@H](C(=O)N[C@H](CCCCN)C(=O)O)[C@H](C)O [RI-D-T61-25, dGdTdAdAdAdQdAdLdYdTdK]
- Ki [4]: 880 ± 40 nM
- TEM-1 inhibition compared with T61-25 [4]: maintained comparable levels of TEM-1 inhibition as T61-25

SMILES: CC(C)C[C@@H](NC(=O)[C@@H](Cc1ccc(O)cc1)NC(=O)[C@H](NC(=O)[C@H](N)CCCCN)[C@H](C)O)C(=O)N[C@H](C)C(=O)N[C@H](CCC(N)=O)C(=O)N[C@H](C)C(=O)N[C@H](C)C(=O)N[C@H](C)C(=O)N[C@@H](C(=O)NCC(=O)O)[C@H](C)O [D-T61-25]
- TEM-1 inhibition compared with T61-25 [4]: maintained comparable levels of TEM-1 inhibition as T61-25

SMILES: CC(C)C[C@H](NC(=O)[C@H](Cc1ccc(O)cc1)NC(=O)[C@H](NC(=O)[C@@H](N)CCCCN)[C@H](C)O)C(=O)N[C@@H](C)C(=O)N[C@@H](CCC(N)=O)C(=O)N[C@@H](C)C(=O)N[C@@H](C)C(=O)N[C@@H](C)C(=O)N[C@H](C(=O)NCC(=O)O)[C@@H](C)O [D-T2]
- TEM-1 inhibition compared with T61-25 [4]: maintained comparable levels of TEM-1 inhibition as T61-25
